pEC50: −log10 of the molar value. Where two headings read alike, the source gives them in different places.
Tested on: xxLAI strain of HIV-1
Experiment: microbe, parasite or virus in culture
Type: cell-based
Conditions: for Fold difference in EC50, 0.1 μM MPA: control vs with 0.1 μM MPA; for Fold difference in EC50, 0.25 μM MPA: control vs with 0.25 μM MPA (fold decrease); for Fold difference in EC50, 1 μM RBV: control vs with 1 μM RBV; for Fold difference in EC50, 5 μM RBV: control vs with 5 μM RBV; for Fold difference in EC50, 10 μM RBV: control vs with 10 μM RBV; for Fold difference in EC50, 20 μM RBV: control vs with 20 μM RBV (fold decrease)
Protocol: Triplicate samples of compound were tested. MT2 cells were infected with xxLAI at a multiplicity of infection (MOI) of 0.03 for 3 hours at 37° C. in 5% CO2. The infected cells were plated at 3.0×10^4/well into a 96 well plated containing drug dilutions and incubated for 5 days at 37° C. in CO2. […] This method has been modified into a susceptibility assay and has been used in a variety of in vitro antiviral tests and is readily adaptable to any system with a lytic virus (Weislow, O. S., et. al. 1989). Using the absorption values of the cell controls as 100% protection and no drug, virus infected cells as 0% protection, a dose response curve is generated by plotting % protection on the Y axis and drug concentration on the X axis. From this curve EC50 values were determined.
Assays were performed in the MT2 cell line as described above in the XXT sensitivity assay section.
MPA was tested for activity against the xxLAI strain of HIV-1 in the laboratory adapted cell line MT2. Dilutions of MPA were made in cell culture media in a 96 well plate; the highest concentration tested was 1 μM. Triplicate samples of compound were tested. MT2 cells were infected with xxLAI at a multiplicity of infection (MOI) of 0.03 for 3 hours at 37° C. in 5% CO2. The infected cells were plated at 3.0×10^4/well into a 96 well plated containing drug dilutions and incubated for 5 days at 37° C. in CO2. The antiviral activity of MPA was determined using the XTT assay described above. This method has been modified into a susceptibility assay and has been used in a variety of in vitro antiviral tests and is readily adaptable to any system with a lytic virus (Weislow, O. S., et. al. 1989). Using the absorption values of the cell controls as 100% protection and no drug, virus infected cells as 0% protection, a dose response curve is generated by plotting % protection on the Y axis and drug concentration on the X axis. From this curve EC50 values were determined.
The concentrations of MPA used were 1, 0.5, 0.25, 0.1, and 0.01 μM. Assays were performed in the MT2 cell line as described in section 3.1.

[1] = Human immunodeficiency virus 1, MT2, read-out: Mean EC50, Control, MT2 cells, no MPA
[2] = Human immunodeficiency virus 1, MT2, read-out: Mean EC50, Control, MT2 cells, no RBV
[3] = read-out: Mean EC50, 0.01 μM MPA, MT2 cells, with 0.01 μM MPA
[4] = read-out: Mean EC50, 0.1 μM MPA, MT2 cells, with 0.1 μM MPA
[5] = read-out: Mean EC50, 0.25 μM MPA, MT2 cells, with 0.25 μM MPA
[6] = read-out: Mean EC50, 1 μM RBV, MT2 cells, with 1 μM RBV
[7] = read-out: Mean EC50, 5 μM RBV, MT2 cells, with 5 μM RBV
[8] = read-out: Mean EC50, 10 μM RBV, MT2 cells, with 10 μM RBV
[9] = read-out: Mean EC50, 20 μM RBV, MT2 cells, with 20 μM RBV

| Compound | pEC50 [1] | pEC50 [2] | Fold difference in EC50, 0.1 μM MPA (MT2 cells) | Fold difference in EC50, 0.25 μM MPA (MT2 cells) | Fold difference in EC50, 1 μM RBV (MT2 cells) | Fold difference in EC50, 5 μM RBV (MT2 cells) | Fold difference in EC50, 10 μM RBV (MT2 cells) | Fold difference in EC50, 20 μM RBV (MT2 cells) | pEC50 [3] | pEC50 [4] | pEC50 [5] | pEC50 [6] | pEC50 [7] | pEC50 [8] | pEC50 [9] |
| --- | --- | --- | --- | --- | --- | --- | --- | --- | --- | --- | --- | --- | --- | --- | --- |
| Nc1nc(N)c2ncn(C3COC(CO)O3)c2n1 (single isomer, unassigned; (-)) [DAPD] | 4.70 | 4.73 | 4.1 fold | 16.7 fold | 2.25 fold | 6.4 fold | 11.56 fold | 14.2 fold | 4.66 | 5.31 | 5.92 | 5.09 | 5.54 | 5.80 | 5.89 |
| Nc1nc2c(ncn2C2COC(CO)O2)c(=O)[nH]1 (single isomer, unassigned; (-)) [DXG] | 5.68 | 5.58 | 3.5 fold | 10.5 fold | 1.29 fold | 4.57 fold | 5.3 fold | 12 fold | 5.60 | 6.22 | 6.70 | 5.69 | 6.24 | 6.30 | 6.66 |

From patent US20020173491A1, “DAPD combination therapy with inosine monophosphate dehydrogenase inhibitor” (priority 2000, published 2002)
